Measurements: US20240010635A1, “NOVEL INDIRUBIN DERIVATIVES HAVING HETEROBICYCLIC MOIETIES AND THE USE THEREOF” (priority 2022, published 2024)
Like-named read-outs stand apart in the source and are kept apart here.

What was measured:
FLT3 WT = target: T1, FLT3 WT (Homo sapiens, UniProt P36888); test: ADP-Glo kinase assay, FLT3 WT; assay type: biochemical; conditions: recombinant FLT3, ADP-Glo, 120 min room temperature; read-out: Enzyme activity (IC50, nM) FLT3 WT
T1 construct: Recombinant proteins containing the FLT3 and FLT3 (D835Y) domains were purchased from Promega; purchased Promega V4064
T1 sequence (P36888 610-943 limits assumed): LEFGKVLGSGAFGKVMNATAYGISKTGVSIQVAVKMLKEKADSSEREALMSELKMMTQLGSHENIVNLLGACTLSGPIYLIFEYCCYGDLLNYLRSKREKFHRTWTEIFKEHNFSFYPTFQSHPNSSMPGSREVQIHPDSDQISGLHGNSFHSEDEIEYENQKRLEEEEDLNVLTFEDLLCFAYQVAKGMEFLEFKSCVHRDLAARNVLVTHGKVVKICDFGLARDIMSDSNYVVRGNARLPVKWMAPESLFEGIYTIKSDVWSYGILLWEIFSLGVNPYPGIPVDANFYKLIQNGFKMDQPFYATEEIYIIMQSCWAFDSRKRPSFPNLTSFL
Procedure: FLT3 activity inhibition was measured by ADP-Glo kinase assay (Promega, cat #V9101). ADP-Glo kinase analysis method is an emission ADP detect method which measures kinase activity by quantification of ADP amount produced during kinase reaction and provides uniform high-throughput screening method.
(§1) Analysis performed in two steps. First, after kinase reaction, ADP-Glo™ reagent of equal volume was added to finish kinase reaction, and then the rest ATP was exhausted. Second, Kinase Detection Reagent was added to convert ADP to ATP and newly synthesized ATP was measured by luciferase/luciferin reaction at the same time. Generated light was measured by using luminometer. The measured luminescence amount can be applied to the ATP→ADP standard conversion curve to confirm the correlation with the ADP concentration.
Recombinant proteins containing the FLT3 and FLT3 (D835Y) domains were purchased from Promega (cat #V4064, cat #V4514), respectively. According to the manufacturer's instructions, optimal enzyme, ATP, and substrate concentration were established using the ADP-Glo™ Kinase Assay (Promega, USA). Kinase reaction buffer 5× (200 mM Tris-HCl, pH 7.5, 100 mM MgCl2, 0.5 mg/ml BSA) was diluted and used, and the diluted compound of the present invention (5×, 1 μl), FLT3 enzyme or FLT3/D835Y enzyme (2.5×, 2 μl) and substrate/ATP mixture (2.5×, 2 μl), were mixed sequentially and reacted at room temperature for 120 minutes. Then, ADP-Glo™ Reagent (5 μl) was added and reacted for 40 min at room temperature. Finally, after adding a reagent for detection (Kinase Detection Reagent, 10 μl), reacting at room temperature for 30 min, and then phosphorylation of substrate peptide was measured by measuring luciferase signal (Integration time 0.5-1 second) using SpectraMax ID5 reader (Molecular Devices LLC., San Jose, CA, USA). IC50 was calculated by nonlinear regression using Prism version 5.01 (GrapghPad).

RET WT = target: T2, RET WT (Homo sapiens, UniProt P07949); test: ADP-Glo kinase assay, RET WT; assay type: biochemical; conditions: recombinant RET wt, 120 min room temperature, read-out: Enzyme activity (IC50, nM) RET WT
T2 construct: Recombinant proteins containing RET wt, RET (M918T) and RET (V804L) domains were purchased from Promega; purchased Promega V8061
T2 sequence (P07949 724-1016 limits assumed): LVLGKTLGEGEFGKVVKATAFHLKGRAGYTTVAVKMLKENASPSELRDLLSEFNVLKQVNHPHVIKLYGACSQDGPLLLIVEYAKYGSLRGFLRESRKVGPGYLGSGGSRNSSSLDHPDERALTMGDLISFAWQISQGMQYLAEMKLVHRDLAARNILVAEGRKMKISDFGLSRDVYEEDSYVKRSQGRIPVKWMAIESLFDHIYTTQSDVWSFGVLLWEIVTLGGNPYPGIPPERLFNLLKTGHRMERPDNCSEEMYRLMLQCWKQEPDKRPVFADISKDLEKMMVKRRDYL
Procedure: as §1
Recombinant proteins containing RET wt, RET (M918T) and RET (V804L) domains were purchased from Promega (cat #V8061, cat #VA7274, cat #V4473), respectively. According to the manufacturer's instructions, optimal enzyme, ATP, and substrate concentration were established using ADP-Glo™ Kinase Assay (Promega, USA). […] Then, ADP-Glo™ Reagent (5 μl) was added and reacted at room temperature for further 40 min. Lastly, Kinase Detection Reagent (10 μl) was added and reacted for 30 min more at room temperature, and then phosphorylation of substrate peptide was measured by measuring luciferase signal (Integration time 0.5-1 second) using SpectraMax ID5 reader (Molecular Devices LLC., San Jose, CA, USA). IC50 was calculated by nonlinear regression using Prism version 5.01 (GrapghPad).

MV4-11 = test: Cell proliferation inhibition in AML cell line MV4-11 (Alamar Blue); assay type: cell-based; conditions: Homo sapiens, MV4-11, 72 hours, read-out: Cell proliferation inhibitory activity (GI50) MV4-11
Description: Cell proliferation inhibition experiments on acute myeloid leukemia (AML) cell lines tested FLT3 inhibitory activity using MV4-11, Molm-13, and Molm-14 cells, which are FLT3-ITD-expressed AML cell lines. The origin of all cell lines is human-derived cell lines, and the place of purchase and culture conditions of each cell line are as follows.
MV4-11 cells were purchased form the American Type Culture Collection (ATCC, Rockville, MD, USA, cat #CRL-9591), Molm-13 (DSMZ, cat #ACC554), Molm-14 (DSMZ, cat #ACC777), and then cultured in RPMI 1640 medium (Corning Co. 10-040-CV) supplemented with 10% fetal bovine serum, 1% penicillin/streptomycin and 4 mM L-glutamine (Life Technology, GrandIsland, NY).
Cell viability was evaluated by Resazurin redox-based analysis method with Alamar Blue Assay Kit (Invitrogen, USA). Specifically, for MV4-11, Molm-13 and Molm-14 cells, 8000 cells were plated on 384-well plates in 45 μl of medium. Compounds were treated with dimethyl sulfoxide (DMSO) as a negative control group. After 3 days (72 hours) of compound addition, 5 μl of Alamar Blue kit reagent was added to each well of 384-well plate and incubated at 37° C. for 2 hours in a humidified CO2 incubator. After incubation, fluorescence density (Flu) was measured at a wavelength of 544 nm and 590 nm using SpectraMax iD3 Multi Mode Microplate Reader (Molecular Devices, ID3-STD). GI50 was calculated by nonlinear regression using Prism version 5.01 (GraphPad, LaJolla, CA, USA).

Structure (SMILES): O=C1Nc2ccc(F)cc2/C1=C1/Nc2ccccc2/C1=N\OCCN1CC2(CNC2)C1 [Example 6, (2Z,3E)-3-((2-(2,6-diazaspiro[3.3]heptan-2-yl)ethoxy)imino)-5′-fluoro-[2,3′-biindolinylidene]-2′-one]
- IC50 (FLT3 WT): 2.44 nM
- IC50 (RET WT): 0.668 nM
- GI50 (MV4-11): 15600 pM

Structure (SMILES): O=C1Nc2ccc(F)cc2/C1=C1/Nc2ccccc2/C1=N\OCC(=O)N1CC2(CNC2)C1 [Example 18, (2Z,3E)-5′-fluoro-3-((2-oxo-2-(2,6-diazaspiro[3.3]heptan-2-yl)ethoxy)imino)-[2,3′-biindolinylidene]-2′-one]
- IC50 (FLT3 WT): 2.15 nM
- IC50 (RET WT): 1.12 nM
- GI50 (MV4-11): 100000 pM

Structure (SMILES): O=C1Nc2ccc(Br)cc2/C1=C1/Nc2ccccc2/C1=N\OCCN1C[C@H]2C[C@@H]1CN2 [Example 13, (2Z,3E)-3-((2-((1R,4R)-2,5-diazabicyclo[2.2.1]heptan-2-yl)ethoxy)imino)-5′-bromo-[2,3′-biindolinylidene]-2′-one]
- IC50 (FLT3 WT): 4.72 nM
- IC50 (RET WT): 1.31 nM
- GI50 (MV4-11; pM): 61 pM

Structure (SMILES): O=C1Nc2ccccc2/C1=C1/Nc2ccccc2/C1=N\OCC(=O)N1C[C@H]2C[C@@H]1CN2 [Example 17, (2Z,3E)-3-((2-((1R,4R)-2,5-diazabicyclo[2.2.1]heptan-2-yl)-2-oxoethoxy)imino)-[2,3′-biindolinylidene]-2′-one]
- IC50 (FLT3 WT): 4.24 nM
- IC50 (RET WT): 1.53 nM
- GI50 (MV4-11): 440 pM

Structure (SMILES): O=C(CO/N=C1/C(=C2/C(=O)Nc3ccc(F)cc32)Nc2ccccc21)N[C@H]1[C@@H]2CNC[C@@H]21 [Example 19, N-((1R,5S,6s)-3-azabicyclo[3.1.0]hexan-6-yl)-2-(((E)-((Z)-5′-fluoro-2′-oxo-[2,3′-biindolinylidene]-3-ylidene)amino)oxy)acetamide]
- IC50 (FLT3 WT): 3.13 nM
- IC50 (RET WT): 1.05 nM
- GI50 (MV4-11): 6780 pM

Structure (SMILES): O=C1Nc2ccccc2/C1=C1/Nc2ccccc2/C1=N\OCCN1C[C@@H]2C[C@H]1CN2 [Example 5, (2Z,3E)-3-((2-((1S,4S)-2,5-diazabicyclo[2.2.1]heptan-2-yl)ethoxy)imino)-[2,3′-biindolinylidene]-2′-one]
- IC50 (FLT3 WT): 1.57 nM
- IC50 (RET WT): 1.85 nM
- GI50 (MV4-11): 663 pM

Structure (SMILES): N[C@@H]1[C@H]2CN(CCO/N=C3/C(=C4/C(=O)Nc5ccc(F)cc54)Nc4ccccc43)C[C@@H]12 [Example 8, (2Z,3E)-3-((2-((1R,5S,6s)-6-amino-3-azabicyclo[3.1.0]hexan-3-yl)ethoxy)imino)-5′-fluoro-[2,3′-biindolinylidene]-2′-one]
- IC50 (FLT3 WT): 1.35 nM
- IC50 (RET WT): 0.441 nM
- GI50 (MV4-11): 90600 pM

Structure (SMILES): O=C1Nc2ccc(F)cc2/C1=C1/Nc2ccccc2/C1=N\OCCN1C[C@H]2C[C@@H]1CN2 [Example 9, (2Z,3E)-3-((2-((1R,4R)-2,5-diazabicyclo[2.2.1]heptan-2-yl)ethoxy)imino)-5′-fluoro-[2,3′-biindolinylidene]-2′-one]
- IC50 (FLT3 WT): 3.87 nM
- IC50 (RET WT): 0.49 nM
- GI50 (MV4-11): 260 pM

Structure (SMILES): O=C1Nc2ccccc2/C1=C1/Nc2ccccc2/C1=N\OCCN1CC2(CNC2)C1 [Example 1, (2Z,3E)-3-((2-(2,6-diazaspiro[3.3]heptan-2-yl)ethoxy)imino)-[2,3′-biindolinylidene]-2′-one]
- IC50 (FLT3 WT): 1.42 nM
- IC50 (RET WT): 1.09 nM
- GI50 (MV4-11): 12400 pM

Structure (SMILES): O=C1Nc2ccc(F)cc2/C1=C1/Nc2ccccc2/C1=N\OCC(=O)N1C[C@H]2C[C@@H]1CN2 [Example 20, (2Z,3E)-3-((2-((1R,4R)-2,5-diazabicyclo[2.2.1]heptan-2-yl)-2-oxoethoxy)imino)-5′-fluoro-[2,3′-biindolinylidene]-2′-one]
- IC50 (FLT3 WT): 2.94 nM
- IC50 (RET WT): 1.88 nM
- GI50 (MV4-11): 1320 pM

Structure (SMILES): O=C1Nc2ccccc2/C1=C1/Nc2ccccc2/C1=N\OCC(=O)N1CC2(CNC2)C1 [Example 15, (2Z,3E)-3-((2-oxo-2-(2,6-diazaspiro[3.3]heptan-2-yl)ethoxy)imino)-[2,3′-biindolinylidene]-2′-one]
- IC50 (FLT3 WT): 3.41 nM
- IC50 (RET WT): 0.664 nM
- GI50 (MV4-11): 100000 pM

Structure (SMILES): O=C1Nc2ccccc2/C1=C1/Nc2ccccc2/C1=N\OCCN1C[C@H]2C[C@@H]1CN2 [Example 4, (2Z,3E)-3-((2-((1R,4R)-2,5-diazabicyclo[2.2.1]heptan-2-yl)ethoxy)imino)-[2,3′-biindolinylidene]-2′-one]
- IC50 (FLT3 WT): 1.37 nM
- IC50 (RET WT): 0.423 nM

Structure (SMILES): O=C1Nc2ccc(Cl)cc2/C1=C1/Nc2ccccc2/C1=N\OCCN1C[C@H]2C[C@@H]1CN2 [Example 11, (2Z,3E)-3-((2-((1R,4R)-2,5-diazabicyclo[2.2.1]heptan-2-yl)ethoxy)imino)-5′-chloro-[2,3′-biindolinylidene]-2′-one]
- IC50 (FLT3 WT): 4.57 nM
- IC50 (RET WT): 1.72 nM
- GI50 (MV4-11; pM): 40 pM

Structure (SMILES): N[C@@H]1[C@H]2CN(CCO/N=C3/C(=C4/C(=O)Nc5ccccc54)Nc4ccccc43)C[C@@H]12 [Example 3, (2Z,3E)-3-((2-((1R,5S,6s)-6-amino-3-azabicyclo[3.1.0]hexan-3-yl)ethoxy)imino)-[2,3′-biindolinylidene]-2′-one]
- IC50 (FLT3 WT): 3.78 nM
- IC50 (RET WT): 0.969 nM
- GI50 (MV4-11): 90600 pM

Structure (SMILES): O=C1Nc2ccccc2/C1=C1/Nc2ccccc2/C1=N\OCCN[C@H]1[C@@H]2CNC[C@@H]21 [Example 2, (2Z,3E)-3-((2-((1R,5S,6s)-3-azabicyclo[3.1.0]hexan-6-ylamino)ethoxy)imino)-[2,3′-biindolinylidene]-2′-one]
- IC50 (FLT3 WT): 2.49 nM
- IC50 (RET WT): 0.964 nM
- GI50 (MV4-11): 7900 pM

Structure (SMILES): O=C(CO/N=C1/C(=C2/C(=O)Nc3ccccc32)Nc2ccccc21)N[C@H]1[C@@H]2CNC[C@@H]21 [Example 16, N-((1R,5S,6s)-3-azabicyclo[3.1.0]hexan-6-yl)-2-(((E)-((Z)-2′-oxo-[2,3′-biindolinylidene]-3-ylidene)amino)oxy)acetamide]
- IC50 (FLT3 WT): 3.13 nM
- IC50 (RET WT): 0.873 nM
- GI50 (MV4-11): 5040 pM
